# Laboratory results taken from paper PMC8245773, “Brevibacillin 2V, a Novel Antimicrobial Lipopeptide With an Exceptionally Low Hemolytic Activity” (Frontiers in Microbiology, 2021).
# Legend:
# Assay in all cases: Synergy assay, checkerboard method
# P. aeruginosa LMG6395 = settings: for FICI: synergistic ≤0.5; for MIC of antibiotic at brevibacillin 0 mg/L / MIC of antibiotic at brevibacillin 2V 0 mg/L / MIC of antibiotic at brevibacillin I 0 mg/L / MIC of antibiotic at brevibacillin V 0 mg/L: checkerboard, 5 × 10^5 cfu/ml, 37°C, 20 h, antibiotic alone
# Protocol: (§1) Briefly, antibiotics were diluted in twofold series, while brevibacillins were added at a certain final concentration of 1, 2, or 4 mg/L. Indicator strains were added at a final concentration of 5 × 10^5 cfu/ml. After incubation at 37°C for 20 h, the OD600 of plates was determined. The fractional inhibitory concentration index (FICI) was calculated using the following formula: FICI = (MIC compound A in combination with B / MIC compound A) + (MIC compound B in combination with A / MIC compound B).
# E. coli ATCC 25922 = settings: for FICI: synergistic ≤0.5; for MIC of antibiotic at brevibacillin 0 mg/L / MIC of antibiotic at brevibacillin 2V 0 mg/L / MIC of antibiotic at brevibacillin I 0 mg/L / MIC of antibiotic at brevibacillin V 0 mg/L: checkerboard, 5 × 10^5 cfu/ml, 37°C, 20 h, antibiotic alone
# Protocol: as §1
# A. baumannii ATCC17978 = settings: A. baumannii ATCC17978; for FICI: synergistic ≤0.5; for MIC of antibiotic at brevibacillin 0 mg/L / MIC of antibiotic at brevibacillin 2V 0 mg/L / MIC of antibiotic at brevibacillin I 0 mg/L / MIC of antibiotic at brevibacillin V 0 mg/L: checkerboard, 5 × 10^5 cfu/ml, 37°C, 20 h, antibiotic alone
# Protocol: as §1
# K. pneumoniae LMG20218 = settings: for FICI: synergistic ≤0.5; for MIC of antibiotic at brevibacillin 0 mg/L / MIC of antibiotic at brevibacillin 2V 0 mg/L / MIC of antibiotic at brevibacillin I 0 mg/L / MIC of antibiotic at brevibacillin V 0 mg/L: checkerboard, 5 × 10^5 cfu/ml, 37°C, 20 h, antibiotic alone
# Protocol: as §1
# [1] = antibiotic + brevibacillin 2V, E. coli ATCC 25922
# [2] = antibiotic + brevibacillin I, E.coli ATCC 25922
# [3] = antibiotic + brevibacillin V, E.coli ATCC 25922
# [4] = antibiotic + brevibacillin, E.coli ATCC 25922
SMILES,FICI (P. aeruginosa LMG6395; antibiotic + brevibacillin 2V),FICI (P. aeruginosa LMG6395; antibiotic + brevibacillin I),FICI (P. aeruginosa LMG6395; antibiotic + brevibacillin V),FICI (P. aeruginosa LMG6395; antibiotic + brevibacillin),MIC of antibiotic at brevibacillin 0 mg/L (P. aeruginosa LMG6395) [µg/mL],MIC of antibiotic at brevibacillin 2V 0 mg/L (P. aeruginosa LMG6395) [µg/mL],MIC of antibiotic at brevibacillin I 0 mg/L (P. aeruginosa LMG6395) [µg/mL],MIC of antibiotic at brevibacillin V 0 mg/L (P. aeruginosa LMG6395) [µg/mL],FICI (E. coli ATCC 25922; [1]),FICI (E. coli ATCC 25922; [2]),FICI (E. coli ATCC 25922; [3]),FICI (E. coli ATCC 25922; [4]),MIC of antibiotic at brevibacillin 0 mg/L (E. coli ATCC 25922; E.coli ATCC 25922) [µg/mL],MIC of antibiotic at brevibacillin 2V 0 mg/L (E. coli ATCC 25922; E.coli ATCC 25922) [µg/mL],MIC of antibiotic at brevibacillin I 0 mg/L (E. coli ATCC 25922; E.coli ATCC 25922) [µg/mL],MIC of antibiotic at brevibacillin V 0 mg/L (E. coli ATCC 25922; E.coli ATCC 25922) [µg/mL],FICI (A. baumannii ATCC17978; antibiotic + brevibacillin 2V),FICI (A. baumannii ATCC17978; antibiotic + brevibacillin I),FICI (A. baumannii ATCC17978; antibiotic + brevibacillin V),FICI (A. baumannii ATCC17978; antibiotic + brevibacillin),further results
CCn1cc(C(=O)O)c(=O)c2ccc(C)nc21 [Nalidixic acid],0.266,0.266,0.516,0.516,256,256,256,256,0.313,0.313,0.375,0.375,2,2,2,2,0.531,0.516,1.016,0.625,MIC of antibiotic at brevibacillin 0 mg/L (A. baumannii ATCC17978): 32 µg/mL; MIC of antibiotic at brevibacillin 2V 0 mg/L (A. baumannii ATCC17978): 32 µg/mL; MIC of antibiotic at brevibacillin I 0 mg/L (A. baumannii ATCC17978): 32 µg/mL; MIC of antibiotic at brevibacillin V 0 mg/L (A. baumannii ATCC17978): 32 µg/mL; FICI (K. pneumoniae LMG20218; antibiotic + brevibacillin 2V): 0.531; FICI (K. pneumoniae LMG20218; antibiotic + brevibacillin I): 0.516; FICI (K. pneumoniae LMG20218; antibiotic + brevibacillin V): 1.016; FICI (K. pneumoniae LMG20218; antibiotic + brevibacillin): 0.563; MIC of antibiotic at brevibacillin 0 mg/L (K. pneumoniae LMG20218): 32 µg/mL; MIC of antibiotic at brevibacillin 2V 0 mg/L (K. pneumoniae LMG20218): 32 µg/mL; MIC of antibiotic at brevibacillin I 0 mg/L (K. pneumoniae LMG20218): 32 µg/mL; MIC of antibiotic at brevibacillin V 0 mg/L (K. pneumoniae LMG20218): 32 µg/mL
CC[C@H]1OC(=O)[C@H](C)[C@@H](O[C@H]2C[C@@](C)(OC)[C@@H](O)[C@H](C)O2)[C@H](C)[C@@H](O[C@@H]2O[C@H](C)C[C@H](N(C)C)[C@H]2O)[C@](C)(O)C[C@@H](C)CN(C)[C@H](C)[C@@H](O)[C@]1(C)O [Azithromycin],0.266,0.266,0.516,0.516,128,128,128,128,0.281,0.375,0.563,0.188,2,2,2,2,0.531,0.516,1.016,0.531,MIC of antibiotic at brevibacillin 0 mg/L (A. baumannii ATCC17978): 16 µg/mL; MIC of antibiotic at brevibacillin 2V 0 mg/L (A. baumannii ATCC17978): 16 µg/mL; MIC of antibiotic at brevibacillin I 0 mg/L (A. baumannii ATCC17978): 16 µg/mL; MIC of antibiotic at brevibacillin V 0 mg/L (A. baumannii ATCC17978): 16 µg/mL; FICI (K. pneumoniae LMG20218; antibiotic + brevibacillin 2V): 1.031; FICI (K. pneumoniae LMG20218; antibiotic + brevibacillin I): 1.016; FICI (K. pneumoniae LMG20218; antibiotic + brevibacillin V): 1.016; FICI (K. pneumoniae LMG20218; antibiotic + brevibacillin): 1.031; MIC of antibiotic at brevibacillin 0 mg/L (K. pneumoniae LMG20218): 16 µg/mL; MIC of antibiotic at brevibacillin 2V 0 mg/L (K. pneumoniae LMG20218): 16 µg/mL; MIC of antibiotic at brevibacillin I 0 mg/L (K. pneumoniae LMG20218): 16 µg/mL; MIC of antibiotic at brevibacillin V 0 mg/L (K. pneumoniae LMG20218): 16 µg/mL
CO[C@H]1/C=C/O[C@@]2(C)Oc3c(C)c(O)c4c(O)c(c(/C=N/N5CCN(C)CC5)c(O)c4c3C2=O)NC(=O)/C(C)=C\C=C\[C@H](C)[C@H](O)[C@@H](C)[C@@H](O)[C@@H](C)[C@H](OC(C)=O)[C@@H]1C [Rifampicin],0.516,0.516,0.516,0.281,32,32,32,32,0.313,0.531,0.375,0.250,4,4,4,4,0.375,0.516,0.516,0.281,MIC of antibiotic at brevibacillin 0 mg/L (A. baumannii ATCC17978): 32 µg/mL; MIC of antibiotic at brevibacillin 2V 0 mg/L (A. baumannii ATCC17978): 32 µg/mL; MIC of antibiotic at brevibacillin I 0 mg/L (A. baumannii ATCC17978): 32 µg/mL; MIC of antibiotic at brevibacillin V 0 mg/L (A. baumannii ATCC17978): 32 µg/mL; MIC of antibiotic at brevibacillin 0 mg/L (K. pneumoniae LMG20218): 64 µg/mL; MIC of antibiotic at brevibacillin 2V 0 mg/L (K. pneumoniae LMG20218): 64 µg/mL; MIC of antibiotic at brevibacillin I 0 mg/L (K. pneumoniae LMG20218): 64 µg/mL; MIC of antibiotic at brevibacillin V 0 mg/L (K. pneumoniae LMG20218): 64 µg/mL
